The source of these data is ChEMBL document CHEMBL3046014, “Quinolone derivatives as antitubercular drugs” (Med Chem Res, 2013).

For data set [1], the system named is Mycobacterium tuberculosis. Nature of the data set: Antitubercular activity against Mycobacterium tuberculosis. The data set is classed as functional, organism-based.
For data set [2], the system named is Mycobacterium tuberculosis. The data set can be described thus: Antitubercular activity against Mycobacterium tuberculosis H37Rv. The data set is classed as functional.
The test system of a further data set is Mycobacterium avium. Nature of the data set: Antitubercular activity against Mycobacterium avium by MAC assay. The data set is classed as functional.
The nature of data set [3]: Elimination half life in healthy Homo sapiens (human). The data set is classed as ADME, organism-based. Conditions: in vivo, read-out: beta t1/2 (converted).
Data set [4] can be described thus: Oral bioavailability in healthy Homo sapiens (human). Conditions: in vivo. The data set is classed as ADME, organism-based.
The species named for another data set is Homo sapiens. The data set can be described thus: Toxicity in healthy Homo sapiens (human). The data set is classed as organism-based. Conditions: in vivo.
A short description of data set [5]: Drug uptake in Mus musculus (mouse) serum at 100 mg/kg, po at 0.25 hr. The data set is classed as ADME, organism-based. Conditions: read-out: Drug uptake. Set-up: dose 100 mg/kg, route oral.
The subject of data set [6] is Mycobacterium tuberculosis. Nature of the data set: Antitubercular activity against Mycobacterium tuberculosis CSU93.

≈ marks a conversion by molar mass, not a printed value.

In the case of `C[C@H]1NCc2cc(-c3ccc4c(=O)c(C(=O)O)cn(C5CC5)c4c3OC(F)F)ccc21` [GARENOXACIN], the MIC90 in data set [1] was 0.0625 µg/mL (≈ 0.147 µM).

As for `C[C@@H]1CN(c2c(F)c(N)c3c(=O)c(C(=O)O)cn(C4CC4)c3c2F)C[C@H](C)N1` [SPARFLOXACIN], the IC50 in data set [1] was 0.25 µg/mL (≈ 0.637 µM).

In data set [1], `Cc1c(F)c(N2CCNC(C)C2)cc2c1c(=O)c(C(=O)O)cn2C1CC1` (stereo not drawn) [GREPAFLOXACIN] showed an MIC90 of 1 µg/mL (≈ 2.78 µM).

`COc1nc2ccc(Br)cc2cc1[C@@H](c1ccccc1)[C@@](O)(CCN(C)C)c1cccc2ccccc12` [BEDAQUILINE] gave an MIC in data set [2] of under 0.5 µg/mL.

For the compound `OC(C1=CCC=CN1)c1cc(C2C3CC4CC(C3)CC2C4)nc2c1ccc1ccccc12` (stereo not drawn), the MIC50 against Mycobacterium avium is 2 µg/mL (≈ 4.73 µM).

With `N[C@@H]1CN(c2c(F)cc3c(=O)c(C(=O)O)cn([C@@H]4C[C@@H]4F)c3c2Cl)CC12CC2` [SITAFLOXACIN ANHYDROUS], the half-life in data set [3] was 4.4 h. For the same compound, the bioavailability in data set [4] is at least 70%. The compound also gave an MIC90 in data set [1] of 0.2 µg/mL (≈ 0.488 µM).

Take `CO/N=C1\CN(c2nc3c(cc2F)c(=O)c(C(=O)O)cn3C2CC2)CC1CN` (stereo not drawn) [GEMIFLOXACIN]: the half-life in data set [3] was 7.4 h. For the same compound, the MNTD in the data set filed under Homo sapiens worked out at 800 mg. The compound further came in with a bioavailability in data set [4] of 70%. The MIC90 in data set [1] turned out to be 8 µg/mL (≈ 20.5 µM).

In the data set on Mycobacterium avium, `OC(C1=CCC=CN1)c1cc(-c2ccc(Cl)cc2)nc2c1ccc1ccccc12` (stereo not drawn) gave an MIC50 of 1 µg/mL (≈ 2.51 µM).

Turning to `C[C@H]1CN(c2c(F)cc3c(=O)c(C(=O)O)cn(C4CC4)c3c2OC(F)(F)F)CCN1.Cl`, the IC50 in data set [1] was 0.25 µg/mL.

Consider `C[C@H]1COc2c(N3CCN(C)CC3)c(F)cc3c(=O)c(C(=O)O)cn1c23.C[C@H]1COc2c(N3CCN(C)CC3)c(F)cc3c(=O)c(C(=O)O)cn1c23.O` [LEVOFLOXACIN], for which the MIC90 in data set [1] stood at 1 µg/mL.

As to `CCn1cc(C(=O)O)c(=O)c2cc(F)c(N3CCNCC3)cc21` [NORFLOXACIN], in data set [1], half-maximal inhibition (IC50) required 8 µg/mL (≈ 25.1 µM).

With `CNC1CCCN(c2c(F)cc3c(=O)c(C(=O)O)cn(C4CC4)c3c2OC)C1` (stereo not drawn) [BALOFLOXACIN], the IC50 in data set [1] was 0.5 µg/mL (≈ 1.28 µM).

`COc1c(N2C[C@@H]3CCCN[C@@H]3C2)c(F)cc2c(=O)c(C(=O)O)cn(C3CC3)c12` [MOXIFLOXACIN]: in data set [5], the concentration at 0.25 h was 7800 ng/mL. This compound gave an MIC in data set [6] of 0.25 µg/mL (≈ 0.623 µM).

On to `OC(c1cc(C(F)(F)F)nc2c(C(F)(F)F)cccc12)C1CCCCN1` (stereo not drawn) [MEFLOQUINE], for which the MIC50 in the data set on Mycobacterium avium was found to be 16 µg/mL (≈ 42.3 µM).

In data set [1], `N[C@@H]1[C@H]2CN(c3nc4c(cc3F)c(=O)c(C(=O)O)cn4-c3ccc(F)cc3F)C[C@@H]12` [TROVAFLOXACIN] displayed an MIC90 of 1 µg/mL (≈ 2.4 µM).

Regarding `O=C(O)c1cn(C2CC2)c2cc(N3CCNCC3)c(F)cc2c1=O` [CIPROFLOXACIN], the half-maximal inhibitory concentration (IC50) in data set [1] came out at 0.5 µg/mL (≈ 1.51 µM).

For the compound `CC1COc2c(N3CCN(C)CC3)c(F)cc3c(=O)c(C(=O)O)cn1c23` (racemic) [OFLOXACIN], it took 0.5 µg/mL (≈ 1.38 µM) to reach half-maximal inhibition in data set [1] (IC50).

In general, MIC90 refers to an inhibitory concentration at the 90% level, which refers to growth in some studies and to a panel of isolates in others. Lower therefore signals greater potency. For orientation: IC50 means the concentration that gives 50% inhibition. A higher IC50 goes with lower potency. For orientation: MIC means the least concentration at which growth counts as inhibited. The MIC50 is an inhibitory concentration at the 50% level, which refers to growth in some studies and to a panel of isolates in others. A word on the bioavailability: it is dose-corrected exposure relative to a reference, in per cent. A high value points to much systemic uptake.
